Here are results for one compound from PMC6331910, “The Curcumin Analogue 1,5-Bis(2-hydroxyphenyl)-1,4-pentadiene-3-one Induces Apoptosis and Downregulates E6 and E7 Oncogene Expression in HPV16 and HPV18-Infected Cervical Cancer Cells” (Molecules, 2015).

Data set [1] deals with HeLa. Kind of data set: MTT anti-proliferative (time-dependent) assay, 24, 48 and 72 h. It is filed as cell-based, human. The protocol:
HeLa, CaSki and MRC9 cells were plated in triplicate wells in 96-well flat-bottomed tissue culture plates (Nunc, Roskilde, Denmark) with 10^5 cells per mL in 100 μL culture media with working concentrations of diarylpentanoid treatment ranging from 1.6 to 100 μM. Control-treated wells contained cells incubated in media with equal volumes of DMSO (0.2%). Cells were treated for 72 h for dose-dependent cytotoxicity assays and at 24, 48 and 72 h for anti-proliferative (time-dependent) assays. In order to assess cell viability and anti-proliferative activity after diarylpentanoid treatment, the colorimetric 3-(4,5-dimethylthiazol-2-yl)-2,5-diphenyltetrazolium bromide (MTT) assay was performed as previously described with modifications. The media was aspirated and cells were incubated in 100 µL complete medium with 0.5 mg/mL MTT solution for 4 h in the dark to allow metabolism of MTT by cellular mitochondrial dehydrogenases. The excess MTT was aspirated and the formazan crystals formed were dissolved by the addition of 100 µL of DMSO. The absorbance of dark blue formazan was read at 570/650 nm wavelengths using a microplate reader (Bio-Rad Benchmark Plus Microplate Spectrophotometer, Hercules, CA, USA). Triplicate absorbance values were averaged and the effect of the compounds on growth inhibition was assessed as percentage cell viability as follows: (1) Percentage cell viability =Absorbance of Test − Absorbance of Blank (media only)/Absorbance of Control − Absorbance of Blank (media only) × 100 where, absorbance = optical density of sample, O.D.; control = untreated sample; test = treated sample.
An independent set of vehicle-treated (DMSO only) controls were included in the anti-proliferative assays to assess the proliferation of untreated cancer cells over 24, 48 and 72 h. As such, the cell viability at 24 h was used as a baseline to measure proliferation rate at 48 and 72 h. (2) Percentage cell viability = […]/Absorbance of Control (24 h) × Absorbance of Blank (media only) × 100

The test system of data set [2] is LNCaP prostate cancer cells. Also on record: method as in PMID 21796654. The note with it: cited from earlier work.
Data set [3] relates to C4-2 prostate cancer cells. Also noted: method as in PMID 21796654. The note with it: cited from earlier work.
In another data set the test system is CaSki. Kind of data set: MTT cell viability (dose-dependent cytotoxicity) assay, 72 h. It counts as cell-based, human. The note with it: for reduction in cell viability: CaSki. The protocol: (§1) Control-treated wells contained cells incubated in media with equal volumes of DMSO (0.2%). […] The media was aspirated and cells were incubated in 100 µL complete medium with 0.5 mg/mL MTT solution for 4 h in the dark to allow metabolism of MTT by cellular mitochondrial dehydrogenases. The excess MTT was aspirated and the formazan crystals formed were dissolved by the addition of 100 µL of DMSO. The absorbance of dark blue formazan was read at 570/650 nm wavelengths using a microplate reader (Bio-Rad Benchmark Plus Microplate Spectrophotometer, Hercules, CA, USA). Triplicate absorbance values were averaged and the effect of the compounds on growth inhibition was assessed as percentage cell viability as follows: […] The results were analysed using GraphPad Prism version 6.00 for Windows (GraphPad Software, La Jolla, CA, USA). […] Overall EC50 was determined by taking the average EC50 from three independent experiments.

Data set [4] has as its system HeLa. Described as above. It counts as cell-based, human. The protocol: as §1

For the compound `O=C(C=Cc1ccccc1O)C=Cc1ccccc1O` [MS17, 1,5-bis(2-hydroxyphenyl)-1,4-pentadiene-3-one], in the data set with HeLa [1], the “dosage from which reduction in cell viability was significantly higher at 48 and 72 h than at 24 h” value was 6.3 µM. For the same compound, the cell viability in the data set on HeLa [1] (6.3 μM onwards, 24 h) is recorded as 34%; in the data set with HeLa [4] (HeLa, 12.5 to 100 μM, 72 h) it was “less than 10%”. Besides, the cell growth was determined as 12% with HeLa [1] (6.3 μM onwards, 48 h) and 5% in the data set on HeLa [1] (6.3 μM onwards, 72 h). The “concentration causing significant cell death” value was above 10 µM in data set [2] and “more than 2.5 μM” in data set [3]. Moreover, the “reduction in cell viability” value with CaSki (1.6 μM, 72 h) worked out at 30%; with CaSki (3.1 to 100 μM, 72 h) it was 90%. The “Selective Index CaSki” value with CaSki (EC50 (MRC9)/EC50 (CaSki) × 100) came to 447. Also, the EC50 with CaSki (Homo sapiens, Ca-Ski, MTT, 72 h, read-out: EC50 (Mean ± S.E.M.) CaSki) was found to be 1.03 ± 0.5 µM; with HeLa [4] (Homo sapiens, HeLa, MTT, 72 h, read-out: EC50 (Mean ± S.E.M.) HeLa), 2.6 ± 0.9 µM. The “Selective Index HeLa” value in the data set on HeLa [4] (EC50 (MRC9)/EC50 (HeLa) × 100) is 177. Besides, the viability at 3.1 µM with HeLa [4] (Homo sapiens, HeLa, 3.1 μM, 72 h) turned out to be 36%. The compound further returned a viability at 6.3 µM in the data set on HeLa [4] (Homo sapiens, HeLa, 6.3 μM, 72 h) of 14%.

Usually cell viability stands for the share of living cells, or the viability signal relative to a control. Read a high cell viability as better survival. What is called EC50 is the concentration at which the effect is half-maximal. In general, viability refers to a read-out of living cells in per cent, often relative to untreated cells. A high value points to better survival.
